Read-outs that look alike come from different tables or passages of the source.
Columns and labels:
[1] = test system: MCF-7 human breast carcinoma cell line; experiment: In vitro antitumor activity assay (SRB), MCF-7; type: cell-based
Description: (§1) HeLa human cervical carcinoma cell line, A-549 human non-small cell lung carcinoma cell line, NCI-H2228 human lung carcinoma cell line, NCI-H460 human lung carcinoma cell line, MDA-MB-231 human breast carcinoma cell line, MCF-7 human breast carcinoma cell line, Bel-7402 human hepatic carcinoma cell line, Hep3B human hepatic carcinoma cell line, QGY-7703 human hepatic carcinoma cell line, MV-4-11 human leukemic cell line, DAUDI human leukemic cell line, Jurkat human leukemic cell line, A498 renal carcinoma cell line, LoVo human colon carcinoma cell line, HCT1116 human colon carcinoma cell line, A431 human skin carcinoma cell line, PANC-1 human pancreatic carcinoma cell line, U87-MG human brain carcinoma cell line, SH-SY5Y human brain carcinoma cell line, RPMI-8226 human bone carcinoma cell line, HT1080 human fibrosarcoma cell line, PC-3 human prostatic carcinoma cell line, AGS human gastric adenocarcinoma cell line, and BGC-823 human gastric adenocarcinoma cell line were purchased from the Cell Bank of the Chinese Academy of Sciences.
(§2) The positive control is bufalin (formulated according to the common method), its purity is 98% or more by HPLC-UV and its structure is identified by NMR. The compounds to be tested and the positive control were diluted with normal saline with a concentration gradient of 10^−4 M, 10^−5 M, 10^−6 M, 10^−7 M and 10^−8 M.
(§3) According to cell growth rate, tumor cells in the log phase of growth were seeded into 96-well culture plates at 100 μL per well, and allowed to attach for 24 hours, followed by addition of a test compound or positive control at 10 μL per well. For each concentration, the test was carried out in triplicate wells. Solvent control wells with addition of normal saline into cell culture and a blank well containing only cell culture medium but without cells for zeroing were also included. The tumor cells were incubated for 72 hours at 37° C. under 5% CO2, and then the culture medium (RPMI-1640) was removed. The cells were fixed with 10% cool TCA by incubating for 1 h at 4° C., washed with distilled water for 5 times, and dried naturally in the air. A solution of SRB (Sigma) (4 mg/mL) in 1% glacial acetic acid was added at 100 μL per well, and the cells were stained for 15 minutes at room temperature, and the supernatant was discarded. The plates were washed for 5 times with 1% acetic acid, and dried in air. Finally, Tris solution was added at 150 μL per well, and the absorbance (A) was measured at a wavelength of 515 nm using a microplate reader. The growth inhibition on tumor cell proliferation was calculated according to the following equation:
(§4) Growth Inhibition (%)=[(Absorbance of negative control−Absorbance of blank)−(Absorbance of sample−Absorbance of blank)]/(Absorbance of negative control−Absorbance of blank)×100%
(§5) Drug concentration: 10 μM, 1 μM, 0.1 μM, 10 nM, 1 nM, 0.1 nM.
(§6) IC50 was fitted by GraphPad Prism 4.

[2] = test system: MDA-MB-231 human breast carcinoma cell line; experiment: In vitro antitumor activity assay (SRB), MDA-MB-231; type: cell-based; details: MDA-MB-231, 72 h, Table 3
Description: as §1, §2
(§7) According to cell growth rate, tumor cells in the log phase of growth were seeded into 96-well culture plates at 100 μL per well, and allowed to attach for 24 hours, followed by addition of a test compound or positive control at 10 μL per well. For each concentration, the test was carried out in triplicate wells. […] Finally, Tris solution was added at 150 μL per well, and the absorbance (A) was measured at a wavelength of 515 nm using a microplate reader. The growth inhibition on tumor cell proliferation was calculated according to the following equation:
(§8) Growth Inhibition (%)=[(Absorbance of negative control−Absorbance of blank)−(Absorbance of sample−Absorbance of blank)]/(Absorbance of negative control−Absorbance of blank)×100% […]

[3] = test system: Hep3B human hepatic carcinoma cell line; experiment: In vitro antitumor activity assay (SRB), Hep3B; type: cell-based; details: 72 h, Table 3
Description: as §1, §2, §7, §8

[4] = test system: HCT-116 human-derived tumor cell line; experiment: In vitro antitumor activity assay (SRB), HCT-116; type: cell-based; details: HCT-116, 72 h, Table 3
Description: as §1, §2, §7, §8

[5] = test system: A431 human skin carcinoma cell line; experiment: In vitro antitumor activity assay (SRB), A431; type: cell-based; details: A431, 72 h, Table 3
Description: as §1, §2, §7, §8

[6] = test system: human non-small cell lung carcinoma A549 xenograft; experiment: In vivo therapeutic effect against A549 xenograft in nude mice; details: for inhibition of growth of human lung carcinoma A549 xenograft, in words: A549 xenograft in nude mice, bufalin at 1.6 mg/kg; for Inhibition Rate (%) / Tumor Weight(g) Mean ± SE: A549 xenograft, after 21 days
Method: This experiment is to evaluate the in vivo therapeutic effects of compounds bufalin, II1D-06.HCl, II1E-01.HCl and II1B-02.HCl against human-derived lung carcinoma A549 cell xenograft in nude mice.
Solvent control: 4% DMSO & 2% Tween-80 & 5% PEG-400 solution in normal saline
Compounds to be tested: bufalin, II1B-02.HCl, II1E-01.HCl, II1D-06.HCl
Formulating method: the compound was dissolved with DMSO into a stock solution, which was then diluted into an injection with a final DMSO concentration of 4%.
Positive control: Rapamycin Formulating method: it was formulated into an injection with a final DMSO concentration of 4%.
(§9) After the tumor size reaches about 200 mm^3, the mice bearing the tumor were grouped randomly into 8 groups according to the tumor size, including the groups of solvent control, positive control rapamycin 5 mg/kg, II1E-01.HCl 2 mg/kg, II1E-01.HCl 4 mg/kg, II1E-01.HCl 6 mg/kg, II1B-02.HCl 4 mg/kg, II1D-06.HCl 4 mg/kg, bufalin 1.6 mg/kg, wherein the dosage selection is based on that the maximum tolerable dosage is 1.6 mg/kg for bufalin and 6 mg/kg for II1E-01.HCl. Rapamycin was administered intravenously once a week (QW) and the other groups were administered intraperitoneally once every other day (QOD). The tumor was weighted after 21 days to calculate the inhibition rate. The equation for calculating inhibition rate (IR) is IR=(WC−WT)/WC×100%, wherein, WC represents the tumor weight of the control group, and WT represents the tumor weight of the treating group.

[7] = Maximum tolerable dosage (basis of dosage selection); details: in vivo
Method: as §9

[8] = test system: HeLa human cervical carcinoma cell line; experiment: In vitro antitumor activity assay (SRB), HeLa; type: cell-based; details: read-out: IC50, inhibitory activity on cell proliferation of HeLa cell line
Method in brief: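 Log-phase cells attached 24 h, then exposed in triplicate to compounds at 10 μM–0.1 nM in saline for 72 h at 37 °C in RPMI-1640. TCA-fixed, SRB-stained, A515 read; percent inhibition versus saline control, IC50 fitted.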

[9] = test system: LoVo human colon carcinoma cell line; experiment: In vitro antitumor activity assay (SRB), LoVo; type: cell-based; details: Table 2, read-out: IC50, inhibition of cell proliferation, LoVo
Description: as §1, §2, §3, §4, §5, §6

Q: Which results are given for C[C@]12CC[C@H](OC(=O)NC3CCNCC3)C[C@H]1CC[C@@H]1[C@@H]2CC[C@]2(C)[C@@H](c3ccc(=O)oc3)CC[C@]12O.Cl [II1E-01•HCl]?
A: IC50 ([1]; MCF-7, 72 h, Table 3, read-out: IC50 (72 h), MCF-7): 10.8 ± 1.08 nM; IC50 [2]: 7.31 ± 0.21 nM; IC50 [3]: > 1000 nM; IC50 [4]: 2.13 ± 0.28 nM; IC50 [5]: 3.31 ± 0.09 nM; inhibition of growth of human lung carcinoma A549 xenograft, in words [6]: significantly inhibit the growth; Inhibition Rate (%) ([6]; 2 mg/kg ip QOD): 32.43%; Tumor Weight(g) Mean ± SE ([6]; 2 mg/kg ip QOD): 1.1375 ± 0.1044 g; Inhibition Rate (%) ([6]; 4 mg/kg ip QOD): 70.57%; Tumor Weight(g) Mean ± SE ([6]; 4 mg/kg ip QOD): 0.4953 ± 0.0301 g; Inhibition Rate (%) ([6]; 6 mg/kg ip QOD): 87.70%; Tumor Weight(g) Mean ± SE ([6]; 6 mg/kg ip QOD): 0.2070 ± 0.0193 g; maximum tolerable dosage [7]: 6 mg/kg

Q: With C[C@]12CC[C@H](O)C[C@H]1CC[C@@H]1[C@@H]2CC[C@]2(C)[C@@H](c3ccc(=O)oc3)CC[C@]12O [bufalin, reference compound] as the compound, how does the IC50 [8] read?
A: 7.27 nM

Q: And the IC50 ([1]; Homo sapiens, MCF7, MCF-7, 72 h, Table 3, read-out: IC50 (72 h), MCF-7)?
A: 45.9 ± 5.18 nM

Q: And the IC50 ([1]; Homo sapiens, MCF7, MCF-7, Table 2, read-out: IC50, inhibition of cell proliferation, MCF-7)?
A: 28.8 ± 3.71 nM

Q: What about the IC50 [9] of the same compound?
A: 29.5 ± 1 nM

Q: What about the IC50 ([2]; Homo sapiens) of the same compound?
A: 28.7 ± 1.66 nM

Q: And the IC50 ([3]; Homo sapiens)?
A: > 1000 nM

Q: And the IC50 ([4]; Homo sapiens)?
A: 9.69 ± 0.64 nM

Q: What about the IC50 ([5]; Homo sapiens, A-431) of the same compound?
A: 26.6 ± 5.35 nM

Q: What about the “inhibition of growth of human lung carcinoma A549 xenograft, in words” value [6] of the same compound?
A: did not express strong inhibitory activity

Q: What about the “Inhibition Rate (%)” value ([6]; 1.6 mg/kg ip QOD) of the same compound?
A: 8.99%

Q: And the “Tumor Weight(g) Mean ± SE” value ([6]; 1.6 mg/kg ip QOD)?
A: 1.5320 ± 0.0624 g

Q: What about the maximum tolerable dosage ([7]; mouse) of the same compound?
A: 1.6 mg/kg
